Values quoted from earlier work, collected in US20160045407A1, “DENTRIFICE WITH INCREMENTAL CHEMISTRIES” (The Procter & Gamble Company, priority 2014, published 2016).

Details: concentration level where the cooling effect can be clearly recognized

SMILES	cooling threshold
CC(C)[C@@H]1CC[C@@H](C)C[C@H]1O [L-menthol]	about 800 ppb
CC(C)[C@@H]1CC[C@@H](C)C[C@@H]1O [d-neomenthol]	about 25,000 ppb
CC(C)[C@@H]1CC[C@@H](C)C[C@@H]1O [1-neomenthol]	about 3,000 ppb
